# Read-outs that look alike come from different tables or passages of the source. Residues, ends and D or L forms follow the SMILES beside them. *: point of attachment. Cbz = O=C(OCc1ccccc1)*; CHN2 = [N-]=[N+]=C*
# Experiments:
# [1] = biological target: T1, vWF-cleaving protease (Homo sapiens, UniProt Q76LX8); experiment: Influence of metal ions on the activity of the vWF-cleaving protease; format: biochemical; conditions: 95 μl protease preincubated 15 minutes at 37° C. with 5 μl of 0.2 M salt solution
# T1 construct: Purification of Protease from Plasma; from tissue; host or cells: plasma (fibrinogen removed before chromatography)
# T1 sequence (Q76LX8 75-1427): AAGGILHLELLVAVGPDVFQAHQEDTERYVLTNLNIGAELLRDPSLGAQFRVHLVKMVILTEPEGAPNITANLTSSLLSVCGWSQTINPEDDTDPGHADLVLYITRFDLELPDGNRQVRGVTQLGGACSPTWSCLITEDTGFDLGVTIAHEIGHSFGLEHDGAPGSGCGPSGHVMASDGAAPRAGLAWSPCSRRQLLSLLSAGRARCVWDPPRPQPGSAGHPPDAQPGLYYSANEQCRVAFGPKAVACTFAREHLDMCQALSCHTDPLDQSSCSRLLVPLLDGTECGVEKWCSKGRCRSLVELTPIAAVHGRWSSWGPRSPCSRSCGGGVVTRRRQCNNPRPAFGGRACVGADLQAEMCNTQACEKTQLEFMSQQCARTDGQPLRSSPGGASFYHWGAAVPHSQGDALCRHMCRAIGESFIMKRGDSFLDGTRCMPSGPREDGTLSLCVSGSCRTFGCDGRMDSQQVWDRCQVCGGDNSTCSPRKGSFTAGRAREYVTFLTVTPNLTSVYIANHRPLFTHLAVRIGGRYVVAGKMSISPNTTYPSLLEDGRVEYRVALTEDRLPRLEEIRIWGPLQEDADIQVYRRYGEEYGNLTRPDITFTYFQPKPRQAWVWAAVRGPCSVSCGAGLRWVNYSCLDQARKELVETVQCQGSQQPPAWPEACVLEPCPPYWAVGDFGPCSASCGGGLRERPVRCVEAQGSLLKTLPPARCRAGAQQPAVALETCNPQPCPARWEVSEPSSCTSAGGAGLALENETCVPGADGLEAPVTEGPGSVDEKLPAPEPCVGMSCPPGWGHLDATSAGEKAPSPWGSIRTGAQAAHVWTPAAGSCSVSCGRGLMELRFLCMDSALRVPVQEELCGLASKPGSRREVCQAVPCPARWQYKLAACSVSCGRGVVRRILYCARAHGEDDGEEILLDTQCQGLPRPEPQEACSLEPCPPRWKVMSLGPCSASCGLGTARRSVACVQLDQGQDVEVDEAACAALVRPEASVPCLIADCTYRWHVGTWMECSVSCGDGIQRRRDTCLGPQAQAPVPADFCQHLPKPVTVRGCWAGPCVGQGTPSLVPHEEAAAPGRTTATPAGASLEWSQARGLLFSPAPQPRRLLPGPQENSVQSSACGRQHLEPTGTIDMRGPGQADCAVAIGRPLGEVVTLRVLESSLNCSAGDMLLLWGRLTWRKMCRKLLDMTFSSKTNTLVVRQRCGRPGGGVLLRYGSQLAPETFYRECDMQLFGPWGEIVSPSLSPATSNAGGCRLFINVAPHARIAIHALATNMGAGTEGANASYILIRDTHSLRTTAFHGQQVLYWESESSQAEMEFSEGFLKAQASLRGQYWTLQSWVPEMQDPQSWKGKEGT
# [2] = biological target: T1, vWF-cleaving protease; experiment: Effect of protease inhibitors on vWF degradation; format: biochemical; conditions: for effect of peptidyl-diazomethylketone inhibitors on proteolytic degradation of vWF: final concentration 0.1 mM during preincubation with barium-activated protease
# [3] = biological target: T2, plasmin (Homo sapiens, UniProt P00747); experiment: Degradation of vWF with plasmin with and without inhibitors; format: biochemical; conditions: for effect of inhibitor on plasmin-induced reduction of high multimers of cryoprecipitate: incubation for more than 8 hours; for effect of inhibitor on plasmin degradation of r-vWF: plasmin reduced to 1:10, about 20 hours
# T2 construct: plasmin being diluted to 0.2 U/ml in 20 mM TBS buffer, pH 8.3
# T2 sequence (P00747 581-810): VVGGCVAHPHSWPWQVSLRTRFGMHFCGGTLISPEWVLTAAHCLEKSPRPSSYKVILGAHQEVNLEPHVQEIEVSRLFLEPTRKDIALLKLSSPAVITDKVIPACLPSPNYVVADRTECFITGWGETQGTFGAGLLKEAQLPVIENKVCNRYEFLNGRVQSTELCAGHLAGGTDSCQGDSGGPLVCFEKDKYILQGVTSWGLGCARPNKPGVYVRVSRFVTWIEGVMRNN
# T2 sequence (P00747 97-580): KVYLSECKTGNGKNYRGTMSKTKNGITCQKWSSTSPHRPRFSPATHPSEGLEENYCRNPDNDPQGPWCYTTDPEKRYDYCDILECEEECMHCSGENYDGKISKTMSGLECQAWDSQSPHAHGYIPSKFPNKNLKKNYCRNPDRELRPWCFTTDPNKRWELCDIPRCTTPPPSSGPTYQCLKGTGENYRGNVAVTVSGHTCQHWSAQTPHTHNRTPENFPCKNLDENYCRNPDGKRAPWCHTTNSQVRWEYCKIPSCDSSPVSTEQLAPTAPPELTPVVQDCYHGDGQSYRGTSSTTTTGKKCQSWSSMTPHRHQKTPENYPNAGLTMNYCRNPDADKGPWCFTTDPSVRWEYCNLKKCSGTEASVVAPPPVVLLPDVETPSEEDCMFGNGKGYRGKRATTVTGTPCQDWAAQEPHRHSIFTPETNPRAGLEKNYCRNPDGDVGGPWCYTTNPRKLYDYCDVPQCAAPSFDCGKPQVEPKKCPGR
# Procedure: (§1) Analysis of the r-vWF and its proteolytic degradation products was performed on 1% and 2% agarose gels, also according to the method of Ruggeri et al. (Blood 57 (1981), 1140-1143). The vWF multimers were made visible by immunoenzymatic staining according to Aihara et al. (Thromb. Haemostas. 55 (1986), 263-267). A rabbit-anti-von Willebrand factor-antiserum (from Dakopatts, Glostrup, Denmark) was used as the primary antibody, and an alkaline phosphatase-conjugated, affinity-purified goat-anti-rabbit IgG H+L-antibody (from Axell Accurate Chemical and Scientific Corp, Westburg, N.Y.) served as the secondary antibody. Staining of the protein bands was effected by means of the nitroblue tetrazolium/bromochloro-indolyl-phosphate substrate system.
# [4] = biological target: T3, vWF protease (Homo sapiens, UniProt Q76LX8); experiment: Degradation of vWF by the vWF protease in the presence of aprotinin or PPACK; format: biochemical; conditions: for degradation of recombinant vWF by the protease in the presence of inhibitor: inhibitor concentration at which no protease activity detected with a chromogenic substrate of plasmin
# T3 construct: the preparation prepared according to the invention with the vWF-specific protease; from tissue
# T3 sequence (Q76LX8 75-1427): T1 sequence (Q76LX8 75-1427)
# Procedure: The concentration of aprotinin and PPACK was chosen such that no protease activity could be detected with a chromogenic substrate of plasmin.
# In this experiment, the degradation products of the recombinant vWF with the protease according to the invention were the satellite bands developed and the central bands. Actually all bands were very similar to plasmatic vWF (FIG. 14 (panel C)).
# as §1
# [5] = Incubation of r-vWF in vWF-deficient human plasma; format: in vitro ADME
# Procedure: Further tests investigated whether a proteolytic degradation of r-vWF took place during incubation with human plasma (cf. FIG. 18). For this, the r-vWF preparation was mixed with equal volumes of a vWF-deficient plasma (cf. FIG. 18 (panel A)) and incubated for 48 hours, samples being taken at various times. No change of the r-vWF over time could be detected.
# as §1
compound,measurement,setting,value
"[Ba+2].[Cl-].[Cl-] [Ba^2+, BaCl2]",activation of the protease by metal ions,[1],substantial activation
"[Ca+2].[Cl-].[Cl-] [Ca^2+, CaCl2]",activation of the protease by metal ions,[1],substantial activation
"CC(=O)[O-].CC(=O)[O-].[Cd+2] [Cd^2+, Cd(CH3 COO)2]",activation of the protease by metal ions,[1],no activation
"O=S(=O)([O-])[O-].[Co+2] [Co^2+, CoSO4]",activation of the protease by metal ions,[1],no activation
"O=S(=O)([O-])[O-].[Cu+2] [Cu^2+, CuSO4]",activation of the protease by metal ions,[1],no activation
O=C(O)CN(CCN(CC(=O)O)CC(=O)O)CC(=O)O [EDTA],inhibition of the barium-preincubated protease (vWF degradation by SDS agarose electrophoresis and immunoblotting),[2],inhibit the barium-preincubated protease completely
"O=C(O)CN(CCOCCOCCN(CC(=O)O)CC(=O)O)CC(=O)O [ESTA, EGTA]",inhibition of the barium-preincubated protease (vWF degradation by SDS agarose electrophoresis and immunoblotting),"[2]; inhibitor final concentration 10 mM, 15 minutes preincubation at 37° C.",inhibit the barium-preincubated protease completely
"NC(=O)CI [IAA, iodoncetamide]",inhibition of the barium-preincubated protease (vWF degradation by SDS agarose electrophoresis and immunoblotting),[2],did not result in protease inhibition
"[Cl-].[Cl-].[Mg+2] [Mg^2+, MgCl2]",activation of the protease by metal ions,[1],slight activation
"[Cl][Mn][Cl] [Mn^2+, MnCl2]",activation of the protease by metal ions,[1],no activation
"CCN1C(=O)C=CC1=O [NEM, N-ethylmaleimide]",inhibition of the barium-preincubated protease (vWF degradation by SDS agarose electrophoresis and immunoblotting),[2],did not result in protease inhibition
same,protease inhibition with inhibitor also incorporated into the dialysis solution,[2],partial protease inhibition
"[Cl][Ni][Cl] [Ni^2+, NiCl2]",activation of the protease by metal ions,[1],no activation
"O=S(=O)(F)Cc1ccccc1 [PMSF, phenylmethylsulfonyl fluoride]",inhibition of the barium-preincubated protease (vWF degradation),[2],no inhibition
"N=C(N)NCCC[C@H](NC(=O)[C@@H]1CCCN1C(=O)[C@H](N)Cc1ccccc1)C(=O)CCl [PPACK, Diphenylalanylprolyl arginine-chloromethylketone]",effect of inhibitor on plasmin-induced reduction of high multimers of cryoprecipitate,[3],prevented
same,effect of inhibitor on plasmin degradation of r-vWF,[3],prevented
same,degradation of cryoprecipitate vWF by vWF protease on addition of inhibitor,[4],could not be prevented
same,degradation of recombinant vWF by the protease in the presence of inhibitor,[4],degraded identically
"[Cl-].[Cl-].[Sr+2] [Sr^2+, SrCl2]",activation of the protease by metal ions,[1],substantial activation
"Cc1ccc(S(=O)(=O)N[C@@H](CCCCN)C(=O)CCl)cc1 [TLCK, N-α-p-tosyl-L-lysine-chloromethylketone]",inhibition of the barium-preincubated protease (vWF degradation),[2],no inhibition
"Cc1ccc(S(=O)(=O)N[C@@H](Cc2ccccc2)C(=O)CCl)cc1 [TPCK, N-α-p-tosyl-L-phenylalanine-chloromethylketone]",inhibition of the barium-preincubated protease (vWF degradation),"[2]; inhibitor 1 mM, 15 minutes preincubation at 37° C.",no inhibition
CC(C)C[C@H](NC(=O)OCc1ccccc1)C(=O)N[C@@H](CC(C)C)C(=O)N[C@@H](Cc1ccc(O)cc1)C(=O)C=[N+]=[N-] [Z-Leu-Leu-Tyr-CHN2] (Cbz-Leu-Leu-Tyr-CHN2),effect of peptidyl-diazomethylketone inhibitors on proteolytic degradation of vWF,[2],active in the presence
"[N-]=[N+]=CC(=O)[C@H](Cc1ccccc1)NC(=O)[C@H](Cc1ccccc1)NC(=O)OCc1ccccc1 [Z-Phe-Phe-CH2, Z-Phe-Phe-CHN2] (Cbz-Phe-Phe-CHN2)",effect of peptidyl-diazomethylketone inhibitors on proteolytic degradation of vWF,[2],impaired the proteolytic degradation of vWF
CC(C)[C@H](NC(=O)OCc1ccccc1)C(=O)N[C@H](C(=O)N[C@@H](Cc1ccc(O)cc1)C(=O)C=[N+]=[N-])C(C)C [Z-Val-Val-Tyr-CHN2] (Cbz-Val-Val-Tyr-CHN2),effect of peptidyl-diazomethylketone inhibitors on proteolytic degradation of vWF,[2],impaired the proteolytic degradation of vWF
"[Cl-].[Cl-].[Zn+2] [Zn^2+, ZnCl2]",activation of the protease by metal ions,[1],no activation
"O=C(O)CC(O)(CC(=O)O)C(=O)O [citrate, Na3 -citrate]",inhibition of the barium-preincubated protease (vWF degradation by SDS agarose electrophoresis and immunoblotting),[2],partial inhibition
CC(=O)N[C@@H](CC(C)C)C(=O)N[C@@H](CC(C)C)C(=O)N[C@H](C=O)CCCNC(=N)N [leupeptin],inhibition of the barium-preincubated protease (vWF degradation),[2],no inhibition
aprotinin,inhibition of the barium-preincubated protease (vWF degradation),[2],no inhibition
same,effect of inhibitor on plasmin-induced reduction of high multimers of cryoprecipitate,[3],prevented
same,effect of inhibitor on plasmin degradation of r-vWF,[3],prevented
same,degradation of cryoprecipitate vWF by vWF protease on addition of inhibitor,[4],could not be prevented
same,degradation of recombinant vWF by the protease in the presence of inhibitor,[4],degraded identically
"r-vWF: Recombinant vWF factor produced according to FEBS-Letters 375, 259-262 (1995), singlet structure",change of r-vWF structure in control preparation,[5]; equal length of time at 37° C. in buffer media,no change of structure
same,change of r-vWF over time,"[5]; mixed with equal volume of vWF-deficient plasma, incubated for 48 hours",No change
